Measurements: patent US20240336601A1 (Chulalongkorn University, priority 2020, published 2024)

Experiments:
[1] = target: T1, PD-1/PD-L1 interaction (Homo sapiens, UniProt Q9NZQ7); assay: PD-1/PD-L1 blockage cell-based bioassay (Jurkat NFAT luciferase / CHO-PDL1 co-culture); details: Jurkat NFAT cells co-cultured with CHO-PDL1 cells, 6 h, luminescence
T1 construct: expressed in transfected cells
Method: PD-1/PD-L1 Blockage Cell-Based Bioassay
Jurkat T cells expressing human PD-1 and luciferase gene reporter driven by TCR-mediated NFAT response element (Jurkat NFAT) were co-cultured with CHO-kl cells expressing human PD-L1 and surface-bound TCR activator (CHO-PDL1). […] CHO-PDL1 cells (20,000 cells/well) were seeded overnight. Compounds were added on CHO-PDL1 and incubated for 2 h at 37° C. Jurkat NFAT cells (20,000 cells/well) were diluted in RPMI assay medium (RPMI1640 with 1% FBS) and added into each well. After co-incubation for 6 h at 37° C., luminescence was determined by adding Bio-Glo™ Luciferase reagent (Promega) and measured with a luminescence plate reader. EC50 values were calculated from the four-parameter concentration-response curves.

[2] = target: interaction between PD-1 and PD-L1 (Homo sapiens, UniProt Q9NZQ7); assay: PD-1/PD-L1 protein-protein interaction assay (ALPHA); type: binding; details: 2 nM His-tagged human PD-L1, 0.6 nM PD-1-Fc, AlphaScreen
Chain of interaction between PD-1 and PD-L1 (Q9NZQ7 19-238 limits assumed): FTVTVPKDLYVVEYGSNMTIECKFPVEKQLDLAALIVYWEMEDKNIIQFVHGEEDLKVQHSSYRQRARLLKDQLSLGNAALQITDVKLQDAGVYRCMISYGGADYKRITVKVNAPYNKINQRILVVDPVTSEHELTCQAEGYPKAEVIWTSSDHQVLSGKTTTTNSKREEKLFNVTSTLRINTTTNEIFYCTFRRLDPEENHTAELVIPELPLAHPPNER
Method: PD-1′PD-L1 Protein-Protein Interaction Assay
Amplified Luminescent Proximity Homogeneous Assay (ALPHA) platform was used to evaluate the ability of the compounds to block the interaction between PD-1 and PD-L1. The assays were performed in half volume white 96-well plate in a final volume of 40 μl. Compounds at various concentrations were preincubated with 2 nM His tagged recombinant human PD-L1 protein and 0.6 nM recombinant PD-1 protein with Fc-tag (both reagents were purchased from AcroBiosystems) for 40 minutes. After the preincubation, 20 μg/mL of Alphascreen Ni chelate donor beads (PerkinElmer, USA) and Protein A acceptor beads (PerkinElmer, USA) were added into the well and incubated under reduced light at 25° C. for 120 minutes. The signal was measured with the EnSight Multimode Plate Reader. IC50 values were calculated from the four-parameter logistic curve fit.

T1 sequence (Q9NZQ7 19-290): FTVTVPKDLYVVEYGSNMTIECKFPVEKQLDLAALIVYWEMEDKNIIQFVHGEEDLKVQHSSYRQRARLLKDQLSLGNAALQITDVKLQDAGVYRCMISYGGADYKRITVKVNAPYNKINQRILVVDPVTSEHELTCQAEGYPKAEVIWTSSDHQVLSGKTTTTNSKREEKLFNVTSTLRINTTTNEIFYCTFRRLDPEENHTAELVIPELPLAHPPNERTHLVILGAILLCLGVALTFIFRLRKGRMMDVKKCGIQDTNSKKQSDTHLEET

Row | SMILES | IC50 [1] | IC50 [2]
1 | COc1cc(-n2ncc3c(-c4cccc(Nc5nc(C(F)F)nc6cc(CN7CC[C@@H](O)C7)cnc56)c4C)cccc32)cc(OC)c1CN(C)C12CCC(C(=O)O)(CC1)CC2 [Example 166, (R)-4-((4-(4-(3-((2-(difluoromethyl)-7-((3-hydroxypyrrolidin-1-yl)methyl)pyrido[3,2-d]pyrimidin-4-yl)amino)-2-methylphenyl)-1H-indazol-1-yl)-2,6-dimethoxybenzyl)(methyl)amino)bicyclo[2.2.2]octane-1-carboxylic acid] | < 0.2 µM | < 0.001 µM
2 | COc1cc(-n2ccc3c(-c4cccc(-c5ccc(CNCC(C)(C)C(=O)O)c(OC)n5)c4Cl)cccc32)cc(OC)c1CNC[C@@H]1CCC(=O)N1 [Example 48] | > 2 µM | 0.01 to 0.1 µM
3 | COc1cc(-n2ccc3c(-c4cccc(-c5ccc(CNC[C@H]6C[C@@H](O)C6)c(OC)n5)c4Cl)cccc32)cc(OC)c1CNC[C@@H]1CCC(=O)N1 [Example 82, (S)-5-(((4-(4-(2-chloro-3-(5-((((cis-3-hydroxycyclobutyl)methyl)amino)methyl)-6-methoxypyridin-2-yl)phenyl)-1H-indol-1-yl)-2,6-dimethoxybenzyl)amino)methyl)pyrrolidin-2-one] | 0.201 to 2 µM | 0.001 to 0.01 µM
4 | COc1cc(-n2ncc3c(-c4cccc(-c5ccc(CNC[C@@H](C)O)c(OC)n5)c4Cl)cccc32)cc(OC)c1CNC[C@@H](C)O [Example 127, (R)-1-(((6-(2-chloro-3-(1-(4-((((R)-2-hydroxypropyl)amino)methyl)-3,5-dimethoxyphenyl)-1H-indazol-4-yl)phenyl)-2-methoxypyridin-3-yl)methyl)amino)propan-2-ol] | < 0.2 µM | < 0.001 µM
5 | COc1cc(-n2ccc3c(-c4cccc(-c5ccc(CNC[C@@H]6CCC(=O)N6)c(OC)n5)c4Cl)cccc32)cc(OC)c1CN1CC[C@@H](NC(C)=O)C1 [Example 38] | > 2 µM | 0.01 to 0.1 µM
6 | COc1cc(-n2ncc3c(-c4cccc(-c5ccc(CN6CC(C(C)(C)O)C6)c(OC)n5)c4C)cccc32)cc(OC)c1CN1CC(C(C)(C)O)C1 [Example 136, 2-(1-((6-(3-(1-(4-((3-(2-hydroxypropan-2-yl)azetidin-1-yl)methyl)-3,5-dimethoxyphenyl)-1H-indazol-4-yl)-2-methylphenyl)-2-methoxypyridin-3-yl)methyl)azetidin-3-yl)propan-2-ol] | 0.201 to 2 µM | < 0.001 µM
7 | CCOC(=O)[C@@H](NCc1c(OC)cc(-n2ncc3c(-c4cccc(-c5ccc(CN6CC7(CNC(=O)C7)C6)c(OC)n5)c4Cl)cccc32)cc1OC)[C@@H](C)O [Example 145, Ethyl (4-(4-(2-chloro-3-(6-methoxy-5-((7-oxo-2,6-diazaspiro[3.4]octan-2-yl)methyl)pyridin-2-yl)phenyl)-1H-indazol-1-yl)-2,6-dimethoxybenzyl)-L-threoninate] | 0.201 to 2 µM | 0.001 to 0.01 µM
8 | COc1cc(-n2ncc3c(-c4cccc(-c5ccc(CN6CC(C(C)(C)O)C6)c(OC)n5)c4Cl)cccc32)ncc1CNCCO [Example 142, 2-(1-((6-(2-chloro-3-(1-(5-(((2-hydroxyethyl)amino)methyl)-4-methoxypyridin-2-yl)-1H-indazol-4-yl)phenyl)-2-methoxypyridin-3-yl)methyl)azetidin-3-yl)propan-2-ol] | < 0.2 µM | < 0.001 µM
9 | COc1cc(-n2ncc3c(-c4cccc(-c5ccc(CNC[C@H]6C[C@@H](O)C6)c(OC)n5)c4Cl)cccc32)cc(OC)c1CN1CC(C)(C(=O)O)C1 [Example 47] | < 0.2 µM | < 0.001 µM
10 | COc1cc(-n2ccc3c(-c4cccc5c4ccn5-c4cc(OC)c(CNC[C@@H]5CCC(=O)N5)c(OC)c4)cccc32)cc(OC)c1CNC[C@@H]1CCC(=O)N1 [Example 64, (5S,5′S)-5,5′-((((1H,1′H-[4,4′-biindole]-1,1′-diylbis(2,6-dimethoxy-4,1-phenylene))bis(methylene))bis(azanediyl))bis(methylene))bis(pyrrolidin-2-one)] | > 2 µM | 0.001 to 0.01 µM
11 | COc1cc(-n2ncc3c(-c4cccc(-c5ccc(CN6CC7(CNC(=O)C7)C6)c(OC)n5)c4Cl)cccc32)ncc1CNC[C@@H]1CCC(=O)N1 [Example 108, (S)-2-((6-(2-chloro-3-(1-(4-methoxy-5-((((5-oxopyrrolidin-2-yl)methyl)amino)methyl)pyridin-2-yl)-1H-indazol-4-yl)phenyl)-2-methoxypyridin-3-yl)methyl)-2,6-diazaspiro[3.4]octan-7-one] | < 0.2 µM | < 0.001 µM
12 | COc1cc(-n2ncc3c(-c4cccc(-c5ccc(CN[C@H]6C[C@@H](O)C6)c(OC)n5)c4Cl)cccc32)cc(OC)c1CN[C@H](CO)C(=O)O [Example 126, (4-(4-(2-chloro-3-(5-(((cis-3-hydroxycyclobutyl)amino)methyl)-6-methoxypyridin-2-yl)phenyl)-1H-indazol-1-yl)-2,6-dimethoxybenzyl)-D-serine] | < 0.2 µM | < 0.001 µM
13 | COc1cc(-n2ncc3c(-c4cccc(-c5ccc(CN6CC7(CNC(=O)C7)C6)c(OC)n5)c4Cl)cccc32)cc(OC)c1CN1CC2(CNC(=O)C2)C1 [Example 90, 2-(4-(4-(2-chloro-3-(6-methoxy-5-((7-oxo-2,6-diazaspiro[3.4]octan-2-yl)methyl)pyridin-2-yl)phenyl)-1H-indazol-1-yl)-2,6-dimethoxybenzyl)-2,6-diazaspiro[3.4]octan-7-one] | 0.201 to 2 µM | 0.001 to 0.01 µM
14 | COc1cc(-n2ncc3c(-c4cccc(-c5ccc(CN6CC(C(C)(C)O)C6)c(OC)n5)c4Cl)cccc32)cc(OC)c1CN1CC2(CNC(=O)C2)C1 [Example 138, 2-(4-(4-(2-chloro-3-(5-((3-(2-hydroxypropan-2-yl)azetidin-1-yl)methyl)-6-methoxypyridin-2-yl)phenyl)-1H-indazol-1-yl)-2,6-dimethoxybenzyl)-2,6-diazaspiro[3.4]octan-7-one] | 0.201 to 2 µM | 0.001 to 0.01 µM
15 | COc1cc(-n2ncc3c(-c4cccc(-c5ccc(CN6CC(C)(O)C6)c(OC)n5)c4Cl)cccc32)cc(OC)c1CNC[C@@H]1CCC(=O)N1 [Example 54] | > 2 µM | 0.01 to 0.1 µM
16 | COc1cc(-n2ncc3c(-c4cccc(-c5ccc(CN6CC7(CCC(=O)N7)C6)c(OC)n5)c4Cl)cccc32)ncc1CNCCO [Example 116, 2-((6-(2-chloro-3-(1-(5-(((2-hydroxyethyl)amino)methyl)-4-methoxypyridin-2-yl)-1H-indazol-4-yl)phenyl)-2-methoxypyridin-3-yl)methyl)-2,5-diazaspiro[3.4]octan-6-one] | < 0.2 µM | < 0.001 µM
17 | COc1cc(-n2ncc3c(-c4cccc(-c5nc6cc(CN(C)C78CCC(C(=O)O)(CC7)CC8)cc(C#N)c6o5)c4C)cccc32)cc(OC)c1CN1CC[C@@H](O)C1 [Example 157, (R)-4-(((7-cyano-2-(3-(1-(4-((3-hydroxypyrrolidin-1-yl)methyl)-3,5-dimethoxyphenyl)-1H-indazol-4-yl)-2-methylphenyl)benzo[d]oxazol-5-yl)methyl)(methyl)amino)bicyclo[2.2.2]octane-1-carboxylic acid] | < 0.2 µM | < 0.001 µM
18 | COc1cc(-n2ncc3c(-c4cccc(-c5ccc(CN6CC[C@@H](O)C6)c(OC)n5)c4Cl)cccc32)cc(OC)c1CNC[C@@H]1CCC(=O)N1 [Example 87, (S)-5-(((4-(4-(2-chloro-3-(5-(((R)-3-hydroxypyrrolidin-1-yl)methyl)-6-methoxypyridin-2-yl)phenyl)-1H-indazol-1-yl)-2,6-dimethoxybenzyl)amino)methyl) pyrrolidin-2-one] | > 2 µM | 0.001 to 0.01 µM
19 | COc1cc(-n2ncc3c(-c4cccc(-c5ccc(C6=NCCN6)c(OC)n5)c4Cl)cccc32)cc(OC)c1CN1CC(C)(C(N)=O)C1 [Example 114, 1-(4-(4-(2-chloro-3-(5-(4,5-dihydro-1H-imidazol-2-yl)-6-methoxypyridin-2-yl)phenyl)-1H-indazol-1-yl)-2,6-dimethoxybenzyl)-3-methylazetidine-3-carboxamide] | 0.201 to 2 µM | 0.001 to 0.01 µM
20 | COc1cc(-n2ncc3c(-c4cccc(-c5ccc(CN[C@H]6C[C@@H](O)C6)c(OC)n5)c4Cl)cccc32)cc(OC)c1CNCC1(C(N)=O)CC1 [Example 131, 1-(((4-(4-(2-chloro-3-(5-(((cis-3-hydroxycyclobutyl)amino)methyl)-6-methoxypyridin-2-yl)phenyl)-1H-indazol-1-yl)-2,6-dimethoxybenzyl)amino)methyl)cyclopropane-1-carboxamide] | 0.201 to 2 µM | 0.001 to 0.01 µM
21 | COc1cc(-n2ncc3c(-c4cccc(-c5ccc(C6=NCCN6)c(OC)n5)c4Cl)cccc32)cc(OC)c1CNC[C@@H]1CCC(=O)N1 [Example 74, (S)-5-(((4-(4-(2-chloro-3-(5-(4,5-dihydro-1H-imidazol-2-yl)-6-methoxypyridin-2-yl)phenyl)-1H-indazol-1-yl)-2,6-dimethoxybenzyl)amino)methyl)pyrrolidin-2-one] | < 0.2 µM | < 0.001 µM
22 | COc1cc(-n2ncc3c(-c4cccc(-c5ccc(CN6CC7(CNC(=O)C7)C6)c(OC)n5)c4Cl)cccc32)ncc1CN[C@H]1C[C@@H](O)C1 [Example 111, 2-((6-(2-chloro-3-(1-(5-(((cis-3-hydroxycyclobutyl)amino)methyl)-4-methoxypyridin-2-yl)-1H-indazol-4-yl)phenyl)-2-methoxypyridin-3-yl)methyl)-2,6-diazaspiro[3.4]octan-7-one] | 0.201 to 2 µM | < 0.001 µM
23 | COc1cc(-n2ncc3c(-c4cccc(-c5ccc(CN6CC7(CNC(=O)C7)C6)c(OC)n5)c4Cl)cccc32)cc(OC)c1CNC[C@@H](C)O [Example 112, (R)-2-((6-(2-chloro-3-(1-(4-(((2-hydroxypropyl)amino)methyl)-3,5-dimethoxyphenyl)-1H-indazol-4-yl)phenyl)-2-methoxypyridin-3-yl)methyl)-2,6-diazaspiro[3.4]octan-7-one] | < 0.2 µM | < 0.001 µM
